In patent US20210063414A1, “METHODS FOR PREVENTING AND/OR TREATING BONE LOSS CONDITIONS BY MODULATING IRISIN” (Dana-Farber Cancer Institute, Inc., priority 2018, published 2021):

Tested on: inguinal fat
Assay: Irisin injection in mice: Ucp1/Dio2 mRNA and Ucp1 protein in inguinal fat
Type: in vivo
Conditions: mice, co-injection with irisin
Protocol: FIG. 18A-FIG. 18B show mRNA and protein levels of indicated genes. 1 mg/kg irisin was injected to 8-week old mice every other day for 6 days. mRNA levels of indicated genes in inguinal fat were analyzed by qRT-PCR. Cyclophilin was used for housekeeping gene (FIG. 18A). Inguinal fats were also lysed to detect the indicated protein level using immunoblot analysis (FIG. 18B). FIGS. 18C and 18D show mRNA and protein levels of indicated genes. Mice were treated and analyzed as (A-B) with addition of coinjection of […] control RGD peptide or cyclo RGDyK (cRGDyK). mRNA levels of indicated genes in inguinal fat were analyzed by qRT-PCR. Cyclophilin was used for house-keeping gene (FIG. 18C). Inguinal fats were also lysed to detect the indicated protein level using immunoblot analysis (FIG. 18D). […] Ucp1 mRNA level was analyzed by qRT-PCR. […]
RNA was extracted from cultured cells or frozen tissues using TRIzol® (Thermo Fischer Scientific) and purified with RNeasy® mini kit (QIAGEN 74106). […] To perform qRT-PCR analysis, normalized RNA was reverse transcribed using a high-capacity cDNA reverse-transcription kit (Applied Biosystems™). cDNA was analyzed by qRT-PCR with indicated primers. Relative mRNA levels were calculated using the comparative CT method and normalized to cyclophilin mRNA. […]

N=C(N)NCCC[C@@H]1NC(=O)[C@H](CCCCN)NC(=O)[C@@H](Cc2ccc(O)cc2)NC(=O)[C@H](CC(=O)O)NC(=O)CNC1=O [cyclo RGDyK]
effect on irisin induction of the protein level of Ucp1: blocked | effect on irisin-induced gene expression of Ucp1 and Dio2: blocked
